{
  "source": "paper PMC3961306",
  "about": "“Comparison of the Cancer Gene Targeting and Biochemical Selectivities of All Targeted Kinase Inhibitors Approved for Clinical Use” (PLoS ONE, 2014)",
  "key": {"[1]": {"system": "mutant versus wild-type cell lines of the 44 cell line panel", "assay": "Anova analysis of cell panel IC50s against cancer gene changes; standardized mean difference (targetedness)"}, "[2]": {"system": "forty-four human cancer cell lines", "assay": "Cell proliferation assay (ATPlite, 72 hours) in the 44 cell line Oncolines panel", "type": "cell-based", "details": "Homo sapiens"}},
  "note": "Like-named read-outs stand apart in the source and are kept apart here.",
  "data": [
    {"smiles": "Cc1ccc(NC(=O)c2ccc(CN3CCN(C)CC3)cc2)cc1Nc1nccc(-c2cccnc2)n1", "note": "[imatinib]", "values": [
      {"measurement": "targetedness (standardized logIC50 difference)", "setting": "[1]; ABL1 oncogene targeting, Figure 5D", "result": -9.84}
    ]},
    {"smiles": "Cn1cnc2c(F)c(Nc3ccc(Br)cc3Cl)c(C(=O)NOCCO)cc21", "note": "[selumetinib]", "values": [
      {"measurement": "Potency shift in cell lines expressing mutant β-catenin (CTNNB1) versus wild-type", "setting": "[1]; CTNNB1 mutant versus wild-type, average", "result": "more than tenfold"}
    ]},
    {"smiles": "CC[C@]1(O)C[C@H]2CN(CCc3c([nH]c4ccccc34)[C@@](C(=O)OC)(c3cc4c(cc3OC)N(C=O)[C@H]3[C@@](O)(C(=O)OC)[C@H](OC(C)=O)[C@]5(CC)C=CCN6CC[C@]43[C@@H]65)C2)C1", "note": "[vincristine]", "values": [
      {"measurement": "IC50", "setting": "[2]; 769-P, cell line 769-P, read-out: cell panel IC50, 769-P", "result": 13, "unit": "nM"},
      {"measurement": "IC50", "setting": "[2]; 786-0, cell line 786-0, read-out: cell panel IC50, 786-0", "result": 42, "unit": "nM"},
      {"measurement": "IC50", "setting": "[2]; A 172, read-out: cell panel IC50, A-172, cell line A-172", "result": 5.3, "unit": "nM"},
      {"measurement": "IC50", "setting": "[2]; A204, cell line A-204, read-out: cell panel IC50, A-204", "result": 13, "unit": "nM"},
      {"measurement": "IC50", "setting": "[2]; A498, read-out: cell panel IC50, A-498, cell line A-498", "result": 20, "unit": "nM"},
      {"measurement": "IC50", "setting": "[2]; A549, read-out: cell panel IC50, A-549, cell line A-549", "result": 24, "unit": "nM"},
      {"measurement": "IC50", "setting": "[2]; A-375, cell line A375, read-out: cell panel IC50, A375", "result": 5.46, "unit": "nM"},
      {"measurement": "IC50", "setting": "[2]; A-427, read-out: cell panel IC50, A-427, cell line A-427", "result": 2.27, "unit": "nM"},
      {"measurement": "IC50", "setting": "[2]; ACHN, cell line ACHN, read-out: cell panel IC50, ACHN", "result": 54, "unit": "nM"},
      {"measurement": "IC50", "setting": "[2]; AN3-CA, cell line AN3 CA, read-out: cell panel IC50, AN3 CA", "result": 1.29, "unit": "nM"},
      {"measurement": "IC50", "setting": "[2]; AU565, read-out: cell panel IC50, AU-565, cell line AU-565", "result": 3.21, "unit": "nM"},
      {"measurement": "IC50", "setting": "[2]; BT-20, cell line BT-20, read-out: cell panel IC50, BT-20", "result": 6, "unit": "nM"},
      {"measurement": "IC50", "setting": "[2]; BT-549, read-out: cell panel IC50, BT-549, cell line BT-549", "result": 2.73, "unit": "nM"},
      {"measurement": "IC50", "setting": "[2]; BXPC-3, cell line BxPC-3, read-out: cell panel IC50, BxPC-3", "result": 9, "unit": "nM"},
      {"measurement": "IC50", "setting": "[2]; C-33-A, cell line C-33 A, read-out: cell panel IC50, C-33 A", "result": 4, "unit": "nM"},
      {"measurement": "IC50", "setting": "[2]; CAL-27, cell line CAL 27, read-out: cell panel IC50, CAL 27", "result": 2.78, "unit": "nM"},
      {"measurement": "IC50", "setting": "[2]; CCRF-CEM, cell line CCRF-CEM, read-out: cell panel IC50, CCRF-CEM", "result": 3.26, "unit": "nM"},
      {"measurement": "IC50", "setting": "[2]; DLD-1, cell line DLD-1, read-out: cell panel IC50, DLD-1", "result": 61, "unit": "nM"},
      {"measurement": "IC50", "setting": "[2]; FaDu, cell line FaDu, read-out: cell panel IC50, FaDu", "result": 8, "unit": "nM"},
      {"measurement": "IC50", "setting": "[2]; HCT-15, cell line HCT-15, read-out: cell panel IC50, HCT-15", "result": 66, "unit": "nM"},
      {"measurement": "IC50", "setting": "[2]; HCT-116, read-out: cell panel IC50, HCT-116, cell line HCT-116", "result": 5, "unit": "nM"},
      {"measurement": "IC50", "setting": "[2]; Hs-578T, cell line Hs 578T, read-out: cell panel IC50, Hs 578T", "result": 2.48, "unit": "nM"},
      {"measurement": "IC50", "setting": "[2]; Jurkat E6.1, cell line Jurkat E6.1, read-out: cell panel IC50, Jurkat E6.1", "result": 2.85, "unit": "nM"},
      {"measurement": "IC50", "setting": "[2]; K562, read-out: cell panel IC50, K-562, cell line K-562", "result": 3.19, "unit": "nM"},
      {"measurement": "IC50", "setting": "[2]; LS174T, read-out: cell panel IC50, LS 174T, cell line LS 174T", "result": 5, "unit": "nM"},
      {"measurement": "IC50", "setting": "[2]; LoVo, cell line LoVo, read-out: cell panel IC50, LoVo", "result": 10, "unit": "nM"},
      {"measurement": "IC50", "setting": "[2]; MG-63, cell line MG-63, read-out: cell panel IC50, MG-63", "result": 3.53, "unit": "nM"},
      {"measurement": "IC50", "setting": "[2]; MOLT-4, cell line MOLT-4, read-out: cell panel IC50, MOLT-4", "result": 1.54, "unit": "nM"},
      {"measurement": "IC50", "setting": "[2]; MeWo, cell line MeWo, read-out: cell panel IC50, MeWo", "result": 8.43, "unit": "nM"},
      {"measurement": "IC50", "setting": "[2]; NCI-H82, cell line NCI-H82, read-out: cell panel IC50, NCI-H82", "result": 4.29, "unit": "nM"},
      {"measurement": "IC50", "setting": "[2]; NCI-H460, cell line NCI-H460, read-out: cell panel IC50, NCI-H460", "result": 35, "unit": "nM"},
      {"measurement": "IC50", "setting": "[2]; OVCAR-3, cell line OVCAR-3, read-out: cell panel IC50, OVCAR-3", "result": 3.58, "unit": "nM"},
      {"measurement": "IC50", "setting": "[2]; RPMI-7951, cell line RPMI-7951, read-out: cell panel IC50, RPMI-7951", "result": 2.24, "unit": "nM"},
      {"measurement": "IC50", "setting": "[2]; SHP77, cell line SHP-77, read-out: cell panel IC50, SHP-77", "result": 183, "unit": "nM"},
      {"measurement": "IC50", "setting": "[2]; SK-N-AS, cell line SK-N-AS, read-out: cell panel IC50, SK-N-AS", "result": 2.3, "unit": "nM"},
      {"measurement": "IC50", "setting": "[2]; SW48, cell line SW48, read-out: cell panel IC50, SW48", "result": 4.22, "unit": "nM"},
      {"measurement": "IC50", "setting": "[2]; SW480, cell line SW480, read-out: cell panel IC50, SW480", "result": 7, "unit": "nM"},
      {"measurement": "IC50", "setting": "[2]; SW-620, cell line SW620, read-out: cell panel IC50, SW620", "result": 4.73, "unit": "nM"},
      {"measurement": "IC50", "setting": "[2]; U2OS, cell line U-2 OS, read-out: cell panel IC50, U-2 OS", "result": 22, "unit": "nM"},
      {"measurement": "IC50", "setting": "[2]; U-87 MG, 72 h, U-87 MG cell line, ATPlite, 72 hours, read-out: IC50 in cell proliferation assay (table S5 cellpanel data)", "result": 4.4, "unit": "nM"},
      {"measurement": "IC50", "setting": "[2]; cell line J82, read-out: cell panel IC50, J82", "result": 28, "unit": "nM"},
      {"measurement": "IC50", "setting": "[2]; cell line PA-1, read-out: cell panel IC50, PA-1", "result": 1.67, "unit": "nM"},
      {"measurement": "IC50", "setting": "[2]; cell line SJCRH30, read-out: cell panel IC50, SJCRH30", "result": "< 1", "unit": "nM"},
      {"measurement": "IC50", "setting": "[2]; cell line SR, read-out: cell panel IC50, SR", "result": "< 1", "unit": "nM"}
    ]}
  ]
}
